Reference: patent US9738634B2, “Heterocyclic amide compound and herbicide” (SYNGENTA PARTICIPATIONS AG, priority 2013, dated 2017)

Legend:
Type in all cases: in vivo
black-grass = experiment: Test Example 3: weedkilling efficacy through soil treatment; H: black-grass; details: soil treatment, treatment dosage 320 g/ha
Method in brief: (§1)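 Crop and weed responses were judged three weeks after a uniform surface spray of the water-diluted emulsion at the given g/ha rate. Seeds sat beneath about 1.5 cm of sterilized diluvial soil, and boxes stood in a greenhouse at 25 to 30° C.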

soybean = experiment: Test Example 3: soil treatment, effect on crop; d: soybean; details: soil treatment, treatment dosage 320 g/ha
Method in brief: as §1

wheat = experiment: Test Example 3: soil treatment, effect on crop; e: wheat; details: soil treatment, treatment dosage 320 g/ha
Method in brief: as §1

transplanted rice = experiment: Test Example 1: preemergent weed treatment in the submerged state, effect on crop; a: transplanted rice; details: treatment dosage 320 g/ha
Method in brief: (§2)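 Pots of alluvial soil flooded 4 cm deep, sown with barnyard grass, bulrush and oval-leafed pondweed and transplanted with 2.5-leaf rice. Emulsified compound applied to the water surface on sowing day at stated g/ha; greenhouse 25–30 °C, effects assessed 3 weeks after treatment.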

oval-leafed pondweed [1] = experiment: Test Example 1: weedkilling efficacy, preemergent weed treatment in the submerged state; C: oval-leafed pondweed; details: treatment dosage 320 g/ha
Method in brief: as §2

barnyard grass [2] = experiment: Test Example 1: weedkilling efficacy, preemergent weed treatment in the submerged state; A: barnyard grass; details: treatment dosage 320 g/ha
Method in brief: as §2

Italian ryegrass = experiment: Test Example 3: weedkilling efficacy through soil treatment; I: Italian ryegrass; details: soil treatment, treatment dosage 320 g/ha
Method in brief: as §1

corn = experiment: Test Example 3: soil treatment, effect on crop; c: corn; details: soil treatment, treatment dosage 320 g/ha
Method in brief: as §1

chickweed = experiment: Test Example 3: weedkilling efficacy through soil treatment; N: chickweed; details: soil treatment, treatment dosage 320 g/ha
Method in brief: as §1

barnyard grass [3] = experiment: Test Example 3: weedkilling efficacy through soil treatment; F: barnyard grass; details: soil treatment, treatment dosage 320 g/ha
From the text: Weedkilling Efficacy Test Through Soil Treatment
Sterilized diluvial soil was introduced into 21 cm long, 13 cm wide, 7 cm deep plastic boxes, and seeds of crabgrass, green foxtail, barnyard grass, wild oat, black-grass, Italian ryegrass, common wind-grass, Indian mallow, redroot pigweed, fig-leafed goosefoot, chickweed, catchweed, birds-eye speedwell, corn, soybean, rice, wheat, beet and rapeseed were each spot-sown, and covered with about 1.5 cm of soil. Next, emulsions of compounds of the present invention prepared according to compounding example 2 were diluted with water to give the specified dosages, and applied uniformly onto the soil surface with a small sprayer. The plants were grown by placing the plastic boxes in a greenhouse at 25 to 30° C., and 3 weeks after the pesticide treatment the effect on each type of plant was investigated on the basis of the assessment criteria of test example 1.
A: barnyard grass, B: bulrush, C: oval-leafed pondweed, D: crabgrass, E: green foxtail, F: barnyard grass, G: wild oat, H: black-grass, I: Italian ryegrass, J: common wind-grass, K: Indian mallow, L: redroot pigweed, M: fig-leafed goosefoot, N: chickweed, O: catchweed, p: birds-eye speedwell, a: transplanted rice, b: directly sown rice, c: corn, d: soybean, e: wheat, f: beet, g: rapeseed
Further, pesticide dosage (g/ha) indicates the concentration regulated such that treatment was with only the stated number of grams (g), when calculated per hectare (ha).

Indian mallow = experiment: Test Example 3: weedkilling efficacy through soil treatment; K: Indian mallow; details: soil treatment, treatment dosage 320 g/ha
Method in brief: as §1

crabgrass = experiment: Test Example 3: weedkilling efficacy through soil treatment; D: crabgrass; details: soil treatment, treatment dosage 320 g/ha
Method in brief: as §1

fig-leafed goosefoot = experiment: Test Example 3: weedkilling efficacy through soil treatment; M: fig-leafed goosefoot; details: soil treatment, treatment dosage 320 g/ha
Method in brief: as §1

common wind-grass = experiment: Test Example 3: weedkilling efficacy through soil treatment; J: common wind-grass; details: soil treatment, treatment dosage 320 g/ha
Method in brief: as §1

oval-leafed pondweed [4] = experiment: Test Example 2: weedkilling efficacy, growth period weed treatment in the submerged state; C: oval-leafed pondweed; details: treatment dosage 320 g/ha
Method in brief: (§3)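 Barnyard grass, bulrush and oval-leafed pondweed sown in alluvial soil under 4 cm flooding, greenhouse 25 to 30° C. At 1-2 leaf stage, water-diluted emulsion applied to the water surface at stated g/ha dosages; effects scored 3 weeks later.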

birds-eye speedwell = experiment: Test Example 3: weedkilling efficacy through soil treatment; p: birds-eye speedwell; details: soil treatment, treatment dosage 320 g/ha
Method in brief: as §1

green foxtail = experiment: Test Example 3: weedkilling efficacy through soil treatment; E: green foxtail; details: soil treatment, treatment dosage 320 g/ha
Method in brief: as §1

wild oat = experiment: Test Example 3: weedkilling efficacy through soil treatment; G: wild oat; details: soil treatment, treatment dosage 320 g/ha
Method in brief: as §1

redroot pigweed = experiment: Test Example 3: weedkilling efficacy through soil treatment; L: redroot pigweed; details: soil treatment, treatment dosage 320 g/ha
Method in brief: as §1

bulrush [5] = experiment: Test Example 2: weedkilling efficacy, growth period weed treatment in the submerged state; B: bulrush; details: treatment dosage 320 g/ha
Method in brief: as §3

bulrush [6] = experiment: Test Example 1: weedkilling efficacy, preemergent weed treatment in the submerged state; B: bulrush; details: treatment dosage 320 g/ha
Method in brief: as §2

barnyard grass [7] = experiment: Test Example 2: weedkilling efficacy, growth period weed treatment in the submerged state; A: barnyard grass; details: treatment dosage 320 g/ha
Method in brief: as §3

rapeseed = experiment: Test Example 3: soil treatment, effect on crop; g: rapeseed; details: soil treatment, treatment dosage 320 g/ha
Method in brief: as §1

directly sown rice = experiment: Test Example 3: soil treatment, effect on crop; b: directly sown rice; details: soil treatment, treatment dosage 320 g/ha
Method in brief: as §1

beet = experiment: Test Example 3: soil treatment, effect on crop; f: beet; details: soil treatment, treatment dosage 320 g/ha
Method in brief: as §1

Row | SMILES | H: black-grass, weedkilling efficacy grade (black-grass) | d: soybean, effect on crop grade (soybean) | e: wheat, effect on crop grade (wheat) | a: transplanted rice, effect on crop grade (transplanted rice) | C: oval-leafed pondweed, weed kill grade (oval-leafed pondweed [1]) | A: barnyard grass, weed kill grade (barnyard grass [2]) | I: Italian ryegrass, weedkilling efficacy grade (Italian ryegrass) | c: corn, effect on crop grade (corn) | N: chickweed, weedkilling efficacy grade (chickweed) | F: barnyard grass, weedkilling efficacy grade (barnyard grass [3]) | K: Indian mallow, weedkilling efficacy grade (Indian mallow) | D: crabgrass, weedkilling efficacy grade (crabgrass) | M: fig-leafed goosefoot, weedkilling efficacy grade (fig-leafed goosefoot) | J: common wind-grass, weedkilling efficacy grade (common wind-grass) | C (oval-leafed pondweed) weedkilling efficacy grade (oval-leafed pondweed [4]) | P: birds-eye speedwell, weedkilling efficacy grade (birds-eye speedwell) | E: green foxtail, weedkilling efficacy grade (green foxtail) | G: wild oat, weedkilling efficacy grade (wild oat) | L: redroot pigweed, weedkilling efficacy grade (redroot pigweed) | B (bulrush) weedkilling efficacy grade (bulrush [5]) | also measured
1 | Cc1cc(Cl)nc(NC(=O)C(C)(C)N2COCN(c3ccccc3)C2=O)c1 [A-2-26] | 5 (weed kill ratio 90% or more, (practically complete withering)) | 2 (weed kill ratio 20% or more, less than 40%) | 3 (weed kill ratio 40% or more, less than 70%) | 4 (weed kill ratio 70% or more, less than 90%) | 5 (weed kill ratio 90% or more, (practically complete withering)) | 5 (weed kill ratio 90% or more, (practically complete withering)) | 5 (weed kill ratio 90% or more, (practically complete withering)) | 0 (weed kill ratio 5% or less (practically no effect)) | 3 (weed kill ratio 40% or more, less than 70%) | 5 (weed kill ratio 90% or more, (practically complete withering)) | 0 (weed kill ratio 5% or less (practically no effect)) | 5 (weed kill ratio 90% or more, (practically complete withering)) | 4 (weed kill ratio 70% or more, less than 90%) | 5 (weed kill ratio 90% or more, (practically complete withering)) | 5 (weed kill ratio 90% or more, (practically complete withering)) | 5 (weed kill ratio 90% or more, (practically complete withering)) | 5 (weed kill ratio 90% or more, (practically complete withering)) | 5 (weed kill ratio 90% or more, (practically complete withering)) | 2 (weed kill ratio 20% or more, less than 40%) | 5 (weed kill ratio 90% or more, (practically complete withering)) | B: bulrush, weed kill grade (bulrush [6]): 5 (weed kill ratio 90% or more, (practically complete withering)); A (barnyard grass) weedkilling efficacy grade (barnyard grass [7]): 5 (weed kill ratio 90% or more, (practically complete withering)); g: rapeseed, effect on crop grade (rapeseed): 4 (weed kill ratio 70% or more, less than 90%); b: directly sown rice, effect on crop grade (directly sown rice): 5 (weed kill ratio 90% or more, (practically complete withering)); f: beet, effect on crop grade (beet): 3 (weed kill ratio 40% or more, less than 70%)
2 | CC(C)(C(=O)Nc1cc(I)ccn1)N1COCN(c2ccccc2)C1=O [A-2-10] | 5 (weed kill ratio 90% or more, (practically complete withering)) | 0 (weed kill ratio 5% or less (practically no effect)) | 0 (weed kill ratio 5% or less (practically no effect)) | 1 (weed kill ratio 5% or more, less than 20%) | 5 (weed kill ratio 90% or more, (practically complete withering)) | 5 (weed kill ratio 90% or more, (practically complete withering)) | 5 (weed kill ratio 90% or more, (practically complete withering)) | 0 (weed kill ratio 5% or less (practically no effect)) | 3 (weed kill ratio 40% or more, less than 70%) | 5 (weed kill ratio 90% or more, (practically complete withering)) | 0 (weed kill ratio 5% or less (practically no effect)) | 5 (weed kill ratio 90% or more, (practically complete withering)) | 4 (weed kill ratio 70% or more, less than 90%) | 5 (weed kill ratio 90% or more, (practically complete withering)) | 5 (weed kill ratio 90% or more, (practically complete withering)) | 4 (weed kill ratio 70% or more, less than 90%) | 5 (weed kill ratio 90% or more, (practically complete withering)) | 2 (weed kill ratio 20% or more, less than 40%) | 1 (weed kill ratio 5% or more, less than 20%) | 5 (weed kill ratio 90% or more, (practically complete withering)) | B: bulrush, weed kill grade (bulrush [6]): 5 (weed kill ratio 90% or more, (practically complete withering)); A (barnyard grass) weedkilling efficacy grade (barnyard grass [7]): 5 (weed kill ratio 90% or more, (practically complete withering)); g: rapeseed, effect on crop grade (rapeseed): 3 (weed kill ratio 40% or more, less than 70%); b: directly sown rice, effect on crop grade (directly sown rice): 4 (weed kill ratio 70% or more, less than 90%); f: beet, effect on crop grade (beet): 3 (weed kill ratio 40% or more, less than 70%)
